Experimental data: patent publication US11834517B2, “Branched peptides for enzymatic assembly and mitochondria drug delivery” (BRANDEIS UNIVERSITY, priority 2017, dated 2023)
Peptide text beside a SMILES is read from it. * marks the point of attachment. X2 = O=C(Cc1ccc2ccccc2c1)N[C@H](Cc1ccccc1)C(=O)N[C@H](Cc1ccccc1)C(=O)N[C@H](CCCCN*)C(=O)NCCNc1ccc([N+](=O)[O-])c2nonc12; X3 = O=C(Cc1ccc2ccccc2c1)N[C@@H](Cc1ccccc1)C(=O)N[C@@H](Cc1ccccc1)C(=O)N[C@@H](CCCCN*)C(=O)N[C@@H](Cc1ccc(O)cc1)C(=O)O; X1 = O=C(Cc1ccc2ccccc2c1)N[C@H](Cc1ccccc1)C(=O)N[C@H](Cc1ccccc1)C(=O)N[C@H](CCCCN*)C(=O)N[C@H](Cc1ccc(O)cc1)C(=O)O

Legend:
HeLa cells [1] = experiment: Uptake and mitochondrial localization of NBD-Mito-Flag in HeLa cells in the presence of inhibitors; format: cell-based, human; details: NBD-Mito-Flag 200 μM; for mitochondrial localization of NBD-Mito-Flag: HeLa, with inhibitor (chloroquine 10 μM; erastin; Ndz 10 μM, 1 h pretreatment; FCCP pretreatment); for uptake of NBD-Mito-Flag (intracellular fluorescence): 2 h, with endocytosis inhibitor (CPZ 5 μM)
Description: FIG. 26B is a panel of confocal fluorescence images of HeLa cells incubated with NBD-Mito-Flag (200 μM) and chloroquine (10 μM). […] FIG. 26D is a panel of TEM images of mitochondria isolated from HeLa, HEK293 and HS-5 cells incubated with 200 μM Mito-Flag for 24 h. […] FIG. 26E and FIG. 26F are fluorescent images of NBD-Mito-Flag and RFP-LAMP1 in ENTK-knockdown HeLa cells. […] FIG. 26G-H are fluorescent images of the HeLa cells incubated with NBD-Mito-Flag (200 μM, 2 h) (FIG. 26G) or the mixture of virus (RFP-LAMP1) and Mito-Flag (200 μM, 24 h) (FIG. 26H) in the presence of erastin of different concentrations. […] FIG. 26I is a panel of fluorescent images of HeLa cells incubated with NBD-Mito-Flag (200 μM, 2 h) after the pretreatment by Ndz (10 μM, 1 h).
Intracellular Fluorescence Quantification: Cells were seeded in petri dishes and incubated in standard condition for 12 h before experiment. After being treated by the condition of interest, all cells were washed by PBS (3 time for 5 min). After the washing step, cells were detached from the dishes using trypsin. The trypsin was removed by centrifuge and washing with PBS. The cell suspensions (in PBS) were diluted to 10^5 cell/mL. 100 μL diluted cell suspension was added in a 96-well plate (at least 5 wells per sample). The intracellular fluorescence intensity was immediately determined using a DTX 880 Multimode Detector (Beckman Coulter Inc.). The experiments were repeated, and the intracellular fluorescence intensity was averaged (n>3).

Saos-2 cell = experiment: Cell viability after GFP-TP53 plasmid transfection, Saos-2; format: cell-based, human; details: Saos-2, single agent: free GFP-TP53 plasmid or Mito-Flag
Description: (§1) FIGS. 24A-G show how perimitochondrial ENS causes mitochondrial transgene expression to induce mitophagy or apoptosis. FIG. 24A is a Western blot analysis of FUNDC1 and LC3B levels in the mitochondria fraction and cytosolic fraction, respectively, of HeLa cells incubated with conditions of interest. VDAC1 serves as mitochondria protein loading control. FUNDC1 plasmid: 5 μg/mL, Mito-Flag: 200 μM, Time: 2 days. FIG. 24B is a panel of fluorescent images showing that Mito-Flag perimitochondrial ENS delivering FUNDC1 gene into mitochondria to induce mitochondrial morphology changes within 2 days. FIG. 24C is a panel of fluorescent images showing that the detection of mitophagy via immunofluorescent staining of autophagy marker, LC3 (2nd day). FIG. 24D is a panel of fluorescent images of HeLa cells incubated with free GFP-TP53 plasmid and the plasmid mixed with Mito-Flag (200 μM, 24 h). FIG. 24E is a graph illustrating cell viability of HeLa, Saos-2, and HS-5 cells incubated with free GFP-TP53 plasmid (5 μg/mL), Mito-Flag (200 μM), and the plasmid (5 μg/mL) mixed with Mito-Flag (200 μM, 3rd day). Data are presented as mean±standard deviation. FIG. 24F is a panel of fluorescent images showing an apoptosis analysis on HeLa and HS-5 cells. […]

HeLa cells [2] = experiment: Cell viability / cytotoxicity (MTT) assay, HeLa; format: cell-based
HeLa cells [3] = experiment: Cell viability after GFP-TP53 plasmid transfection, HeLa; format: cell-based, human; details: single agent: free GFP-TP53 plasmid (5 μg/mL) or Mito-Flag (200 μM), 3rd day
Description: as §1

HS-5 cells = experiment: Cell viability after GFP-TP53 plasmid transfection, HS-5; format: cell-based, human; details: HS-5, GFP-TP53 plasmid (5 μg/mL) mixed with Mito-Flag (200 μM), 3rd day
Description: as §1

MT-CO1-KO cancer cells = experiment: Sensitivity of MT-CO1-KO cancer cells to chemotherapeutic agents; format: cell-based, human; details: MT-CO1 knocked out via Mito-Flag and CRISPR-MT-CO1 plasmid

Row | Compound | mitochondrial localization of NBD-Mito-Flag (HeLa cells [1]) | cytotoxicity of branched peptide alone (U87MG cells) | cytotoxicity of branched peptide alone (HeLa cells [2]) | also measured
1 | N#CC(C#N)=NNc1ccc(OC(F)(F)F)cc1 [FCCP, p-trifluoromethoxy carbonylcyanide phenylhydrazone] | diminishes the mitochondria-specific localization | – | – | –
2 | CN(C)CCCN1c2ccccc2Sc2ccc(Cl)cc21 [chlorpromazine] | – | – | – | uptake of NBD-Mito-Flag (intracellular fluorescence) (HeLa cells [1]): significantly decreases the intracellular fluorescence
3 | M-β-CD | – | – | – | uptake of NBD-Mito-Flag (intracellular fluorescence) (HeLa cells [1]): hardly affects the uptake
4 | NCCCC[C@H](NC(=O)[C@H](CC(=O)O)NC(=O)[C@H](CC(=O)O)NC(=O)[C@H](CC(=O)O)NC(=O)[C@H](CC(=O)O)NC(=O)[C@H](CCCCN)NC(=O)[C@H](Cc1ccc(O)cc1)NC(=O)[C@@H](N)CC(=O)O)C(=O)NCC(=O)NCCCC[C@@H](NC(=O)[C@@H](Cc1ccccc1)NC(=O)[C@@H](Cc1ccccc1)NC(=O)Cc1ccc2ccccc2c1)C(=O)N[C@H](Cc1ccc(O)cc1)C(=O)O [D-2 ? FLAG] (H-DYKDDDDKG-X1) | – | minimal cytotoxicity | minimal cytotoxicity | cell viability (Saos-2 cell): innoxious; cell viability (HeLa cells [3]): hardly causes cell death; cell viability (HS-5 cells): neither free GFP-TP53 plasmid nor the mixture of Mito-Flag and GFP-TP53 plasmid impairs the viability of HS-5 cells
5 | COC(=O)Nc1nc2ccc(C(=O)c3cccs3)cc2[nH]1 [nocodazole] | weakened mitochondrial fluorescence | – | – | –
6 | NCCCC[C@H](NC(=O)[C@H](CC(=O)O)NC(=O)[C@H](CC(=O)O)NC(=O)[C@H](CC(=O)O)NC(=O)[C@H](CC(=O)O)NC(=O)[C@H](CCCCN)NC(=O)[C@H](Cc1ccc(O)cc1)NC(=O)[C@@H](N)CC(=O)O)C(=O)NCC(=O)NCCCC[C@H](NC(=O)[C@H](Cc1ccccc1)NC(=O)[C@H](Cc1ccccc1)NC(=O)Cc1ccc2ccccc2c1)C(=O)N[C@@H](Cc1ccc(O)cc1)C(=O)O [L-2 ? FLAG] (H-DYKDDDDKG-X3) | – | minimal cytotoxicity | minimal cytotoxicity | –
7 | N.N.[Cl][Pt][Cl] [cisplatin] | – | – | – | sensitivity of MT-CO1-KO cancer cells versus wild type (MT-CO1-KO cancer cells): more sensitive
8 | CCN(CC)CCCC(C)Nc1ccnc2cc(Cl)ccc12 (stereo not drawn) [chloroquine] | significantly reduced mitochondrial localization | – | – | –
9 | NCCCC[C@H](NC(=O)[C@H](CC(=O)O)NC(=O)[C@H](CC(=O)O)NC(=O)[C@H](CC(=O)O)NC(=O)[C@H](CC(=O)O)NC(=O)[C@H](CCCCN)NC(=O)[C@H](Cc1ccc(O)cc1)NC(=O)[C@@H](N)CC(=O)O)C(=O)NCC(=O)NCCCC[C@@H](NC(=O)[C@@H](Cc1ccccc1)NC(=O)[C@@H](Cc1ccccc1)NC(=O)Cc1ccc2ccccc2c1)C(=O)NCCNc1ccc([N+](=O)[O-])c2nonc12 [D-1 ? FLAG] (H-DYKDDDDKG-X2) | – | little cytotoxicity | little cytotoxicity | –
